Laboratory results: patent publication US9992997B2, “Composition comprising bromadiolone, rodenticide bait, and method for controlling target rodent pests” (priority 2014, dated 2018)
Like-named read-outs stand apart in the source and are kept apart here.

What was measured:
[1] = molecular target: T1, Vitamin K Epoxide Reductase Complex 1 (VKORC1) (Rattus norvegicus, UniProt Q6TEK4); experiment: Inhibition of vitamin K epoxide reductase (VKOR) activity in vitro, rat liver microsomes; type: biochemical; conditions: microsomes of livers of rats sensitive to AVK; preparations 96% pure; read-out: inhibition constants (Ki) of VKOR activity
T1 construct: catalysed by microsomes of the livers of rats sensitive to anti-vitamin K (AVK) compounds; from tissue; host or cells: rat liver microsomes
T1 sequence (Q6TEK4 1-161): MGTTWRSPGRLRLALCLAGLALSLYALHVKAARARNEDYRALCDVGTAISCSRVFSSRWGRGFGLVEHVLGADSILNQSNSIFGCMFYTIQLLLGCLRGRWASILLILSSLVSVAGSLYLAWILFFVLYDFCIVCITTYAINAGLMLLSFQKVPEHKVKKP
Description: Inhibition of Vitamin K Epoxide Reductase Complex 1 (VKORC1) In Vitro by the Homostereoisomer and by the Heterostereoisomer of Bromadiolone
The inhibitory power of two preparations concentrated respectively in the homostereoisomer (Homo-SI) and heterostereoisomer (Hetero-SI) of bromadiolone was evaluated utilising measurement of the activity of vitamin K epoxide reductase (VKOR) catalysed by microsomes of the livers of rats sensitive to anti-vitamin K (AVK) compounds. The configurational stereoisomers of bromadiolone are partially purified by HPLC chromatography over a gradient of composition (A/B) as described in Table 1 above. The preparation concentrated in Homo-SI is made up of 96% Homo-SI and 4% Hetero-SI. The preparation concentrated in Hetero-SI is made up of 96% Hetero-SI and 4% Homo-SI. […] The inhibitory power on the toxicological target of each of the two isomers is therefore similar.

[2] = Hepatic persistence in the rat after single tube-feeding of Homo-SI or Hetero-SI; type: in vivo, Sprague Dawley rats
Description: Hepatic Persistence of the Homostereoisomer (Homo-SI) and the Heterostereoisomer (Hetero-SI) of Bromadiolone in the Rat
On D0 laboratory rats (Sprague Dawley rats, Charles River, Saint germain sur l'Arbresle, France) having a body weight of the order of 200 g are tube-fed with a solution of Homo-SI in a mixture of oil/DMSO or with a solution of Hetero-SI in an identical mixture of oil/DMSO in an amount of 3.0 mg of bromadiolone per kilogram of rat. The rats are kept alive by daily subcutaneous injection of a solution of vitamin K in an amount of 0.1 U per rat. On D+1, D+3, D+7, D+14 and D+21 4 rats are anaesthetised with isoflurane and then sacrificed, and the livers are removed and frozen until analysed. The course with respect to time of the mean hepatic contents of the configurational stereoisomers “Homo-SI” (▪) and “Hetero-SI” (◯) are analysed by HPLC, given in Table 2 below and shown in FIG. 4 (the symbol (▪) represents Homo-SI and the symbol (◯) represents Hetero-SI).

[3] = tested on: Sprague Dawley rats; experiment: Multi-feeding administration of composition concentrated in Homo-SI, coagulation time (Quick time); type: in vivo; conditions: daily dose of 0.25 mg during 3 consecutive days, male or female rat
Description: Administration of a Composition Concentrated in Homo-SI by Multiple Ingestions (“Multi-Feeding”)
A composition of bromadiolone comprising 96% Homo-SI and 4% Hetero-SI is administered daily by tube-feeding during three days (D0, D+1 and D+2) to groups of 3 male or female laboratory rats (Sprague Dawley rats of 200 g) in an amount of: • 0.05 mg of bromadiolone per kilogram of rat, or • 0.1 mg of bromadiolone per kilogram of rat, or • 0.25 mg of bromadiolone per kilogram of rat, or • 0.5 mg of bromadiolone per kilogram of rat, or • 0.75 mg of bromadiolone per kilogram of rat.
On these rats blood samples are taken and on D+3 the coagulation time (Quick time, expressed in seconds) of the plasma is measured by means of the “Neoplastine CI Determination of Prothrombin Time” kit (Diagnostica Stago, Asnière, France) by measurement on a Thrombotimer option 2 plus apparatus (Behnk Electronik, Norderstedt, Germany).
The results obtained are given in FIG. 5, on which the hatched histograms represent the coagulation time of the female rats and the solid histograms represent the coagulation times of the male rats. By way of indication, the normal value for the coagulation time of untreated rats is of the order of 10 to 20 seconds.

[4] = Hepatic persistence of Homo-SI/Hetero-SI mixtures in the male rat; type: in vivo, male Sprague Dawley rats
Description: Hepatic Persistence of the Homo-SI and Hetero-SI Configurational Stereoisomers of Bromadiolone in the Male Rat
The following compositions concentrated in the Homo-SI or Hetero-SI configurational stereoisomers are prepared by one of the chromatography methods described above, in which the molar ratios are as follows: • Homo-SI/Hetero-SI: 80/20; • Homo-SI/Hetero-SI: 4/96.
On D0 16 male laboratory rats (Sprague Dawley rats, Charles River, Saint germain sur l'Arbresle, France) having a body weight of the order of 200 g are tube-fed with a dose of the 80/20 mixture or the 4/96 mixture above in an amount of 3.8 mg of bromadiolone per kilogram of rat. The rats are kept alive by daily subcutaneous injection of a solution of vitamin K. On D+1, D+3, D+5 and D+10, 4 rats are anaesthetised with isoflurane and then sacrificed, and the livers are removed and frozen until analysed.

[5] = Hepatic persistence of Homo-SI/Hetero-SI mixtures in the female rat; type: in vivo, female rats
Description: Hepatic Persistence of the Homo-SI and Hetero-SI Configurational Stereoisomers of Bromadiolone in the Female Rat
The following compositions concentrated in the Homo-SI or Hetero-SI configurational stereoisomers are prepared by one of the chromatography methods described above, in which the molar ratios are as follows: • Homo-SI/Hetero-SI: 80/20; • Homo-SI/Hetero-SI: 20/80.
The procedure with the female rats is the same as that with the male rats as described above. The mean hepatic contents of the Homo-SI and Hetero-SI isomers of the female rats are analysed by HPLC and are given in Table 4 below.

[6] = D + 1, 3.0 mg/kg tube-fed on D0, 3 mg/kg
[7] = D + 3, 3.0 mg/kg tube-fed on D0, 3 mg/kg
[8] = D + 7, 3.0 mg/kg tube-fed on D0, 3 mg/kg
[9] = D + 14, 3.0 mg/kg tube-fed on D0, 3 mg/kg

Row | Compound | Ki [1] [nM] | Hepatic content [2, 6] [µg/g] | Hepatic content [2, 7] [µg/g] | Hepatic content [2, 8] [µg/g] | Hepatic content [2, 9] [µg/g] | Hepatic content of total bromadiolone ([4]; 3.8 mg/kg, D + 1, 3.8 mg/kg) [µg/g] | Hepatic content of total bromadiolone ([4]; 3.8 mg/kg, D + 3, 3.8 mg/kg) [µg/g] | Hepatic content of total bromadiolone ([4]; 3.8 mg/kg, D + 5, 3.8 mg/kg) [µg/g] | Hepatic content of total bromadiolone ([5]; D + 9) [µg/g] | other results
1 | O=c1oc2ccccc2c(O)c1C(CC(O)c1ccc(-c2ccc(Br)cc2)cc1)c1ccccc1 (stereo not shown) [Hetero-SI, reference compound] | ~50 | 18.62 ± 2.22 | 14.70 ± 1.06 | 5.20 ± 0.75 | 2.67 ± 1.07 | – | – | – | – | Hepatic content ([2]; D + 21, 3.0 mg/kg tube-fed on D0, 3 mg/kg): 0.99 ± 0.07 µg/g
2 | O=c1oc2ccccc2c(O)c1C(CC(O)c1ccc(-c2ccc(Br)cc2)cc1)c1ccccc1 (stereo not shown) [96/4] | – | – | – | – | – | – | – | – | – | effect of repeated ingestion (anticoagulant effect, haemorrhage, death) [3]: sufficient to obtain an anticoagulant effect, a haemorrhage in the rat (male or female) and its death
3 | O=c1oc2ccccc2c(O)c1C(CC(O)c1ccc(-c2ccc(Br)cc2)cc1)c1ccccc1 (stereo not shown) [Mixture 80/20] | – | – | – | – | – | 7.85 ± 0.51 | 3.49 ± 0.29 | 2.15 ± 0.90 | 2.47 | Hepatic content of total bromadiolone ([4]; 3.8 mg/kg, D + 10, 3.8 mg/kg): 1.33 ± 0.14 µg/g; hepatic persistence (comparison with Hetero-SI or 4/96 mixture) ([4]; listed as 80/20 mixture): less persistent; concentration at 1 day ([4]; male, Sprague Dawley, rat, liver, oral, 3.8 mg/kg, D + 1, read-out: Hepatic content of total bromadiolone): 7850 ng/g; Hepatic content of total bromadiolone ([5]; D + 1): 25.39 µg/g; Hepatic content of total bromadiolone ([5]; D + 3): 12.6 µg/g
4 | O=c1oc2ccccc2c(O)c1C(CC(O)c1ccc(-c2ccc(Br)cc2)cc1)c1ccccc1 (stereo not shown) [Mixture 20/80, reference compound] | – | – | – | – | – | – | – | – | 7.18 | concentration at 1 day ([5]; female, Sprague Dawley, rat, liver, oral, 3.8 mg/kg, D + 1, read-out: Hepatic content of total bromadiolone): 32500 ng/g; concentration at 3 day ([5]; female, Sprague Dawley, rat, liver, oral, 3.8 mg/kg, D + 3, read-out: Hepatic content of total bromadiolone): 24200 ng/g; concentration at 5 day ([5]; female, Sprague Dawley, rat, liver, oral, 3.8 mg/kg, D + 5, read-out: Hepatic content of total bromadiolone): 16400 ng/g
5 | O=c1oc2ccccc2c(O)c1C(CC(O)c1ccc(-c2ccc(Br)cc2)cc1)c1ccccc1 (stereo not shown) [Homo-SI, 3-[3-(4′-bromo-[1,1′-biphenyl]-4-yl)-3-hydroxy-1-phenylpropyl]-4-hydroxy-2H-1-benzopyran-2-one] | ~30 | 8.27 ± 2.72 | 2.34 ± 0.43 | 1.57 ± 0.21 | 0.99 ± 0.06 | – | – | – | – | hepatic persistence (comparison with Hetero-SI or 4/96 mixture) [4]: significantly lower; hepatic persistence compared with Hetero-SI [5]: significantly lower; concentration at 21 day ([2]; Sprague Dawley, rat, liver, oral, 3 mg/kg, D + 21, 3.0 mg/kg tube-fed on D0, read-out: Hepatic content): 920 ± 80 ng/g; hepatic persistence compared with Hetero-SI ([2]; rat, equal initial dose): significantly lower
6 | O=c1oc2ccccc2c(O)c1C(CC(O)c1ccc(-c2ccc(Br)cc2)cc1)c1ccccc1 (stereo not shown) [Mixture 4/96, reference compound] | – | – | – | – | – | 14.96 ± 2.0 | 10.08 ± 3.3 | 9.99 ± 1.0 | – | Hepatic content of total bromadiolone ([4]; 3.8 mg/kg, D + 1, listed as 4/96 mixture, 3.8 mg/kg): 14.96 µg/g; concentration at 10 day ([4]; male, Sprague Dawley, rat, liver, oral, 3.8 mg/kg, D + 10, read-out: Hepatic content of total bromadiolone): 2390 ng/g
